PMC9069370, “Integrated Design of a Membrane‐Lytic Peptide‐Based Intravenous Nanotherapeutic Suppresses Triple‐Negative Breast Cancer” (Advanced Science, 2022)
Peptide text beside a SMILES is read from it.

How the values were obtained:
[1] = system: HMLER; assay: cells; format: cell-based, human; conditions: 72 h
Source text: (§1) […], and MCF-10A cells were maintained in MEGM with supplements and growth factors bovine pituitary extract, hydrocortisone, human epidermal growth factor, insulin, and gentamicin/amphotericin-B.

[2] = system: HMLER‐shEcad; assay: cells; format: cell-based, human; conditions: 72 h
Source text: as §1

[3] = system: MCF‐10A; assay: cells; format: cell-based, human; conditions: 72 h
Source text: as §1

[4] = system: U2OS; format: cell-based, human; conditions: 72 h
[5] = system: HEK293T; assay: cells; format: cell-based, human; conditions: 72 h
[6] = Tryptophan fluorescent binding assay; conditions: tryptophan fluorescence; 50 µM peptide, lipid titrated 0-5000 µM; phosphate buffered saline 1X, pH 7.4; values as lipid per peptide
Method: 50 µM ACP peptides and varied concentrations (concentrations: 0, 25, 50, 100, 150, 200, 250, 500, 1250, and 2500 µM) of POPC or POPC:POPG (3:1 ratio) large unilamellar vesicles were prepared in 10 mM phosphate buffer (pH 7.0). The solutions were measured after 1 h of incubation. Excitation was fixed at 280 nm (slit 9 nm) and emission was collected from 300 to 450 nm (slit 9 nm). The spectra were recorded using Cytation 5 Cell Imaging Multi‐Mode Reader from BioTek and were averaged by three scans.
Lipid Concentration-induced
Name Sequence† 50% Peptide Binding (L/P)
Extended Data Table 3 | Tryptophan binding assay. […]
peptide binding onto liposome. 50 µM peptides were fixed and incubated with titrated lipid (POPC vesicle […]
phosphate buffered saline (1X, pH 7.4). The lipid concentration that causes 50 % peptide binding was determined using tryptophan fluorescent binding assay and the values are shown as lipid per peptide.

[7] = ANTS/DPX liposome leakage assay; conditions: for Peptide Concentration-induced 50 % ANTS/DPX leakage at pH 4.8 (L/P), 3POPC/1POPG Vesicle / Peptide Concentration-induced 50 % ANTS/DPX leakage at pH 4.8 (L/P), POPC Vesicle / Peptide Concentration-induced 50 % ANTS/DPX leakage at pH 7.4 (L/P), 3POPC/1POPG Vesicle / Peptide Concentration-induced 50 % ANTS/DPX leakage at pH 7.4 (L/P), POPC Vesicle: 0.5 mM vesicles, peptide 0-20 µM, 3 h incubation, lipid per peptide; for Peptide Concentration-induced 50 % ANTS/DPX leakage at pH 4.8 (L/P), 3POPC/1POPG Vesicle / Peptide Concentration-induced 50 % ANTS/DPX leakage at pH 4.8 (L/P), POPC Vesicle: HCl-adjusted PBS 1X pH 4.8; for Peptide Concentration-induced 50 % ANTS/DPX leakage at pH 7.4 (L/P), 3POPC/1POPG Vesicle / Peptide Concentration-induced 50 % ANTS/DPX leakage at pH 7.4 (L/P), POPC Vesicle: PBS 1X pH 7.4, high ratio = more potent
Method: Vesicle preparation: 5 mM ANTS and 12.5 mM DPX were entrapped in 0.1 µm diameter extruded vesicles (either POPC or POPC/POPG at a ratio of 3:1) with lipids. Gel filtration chromatography of Sephadex G‐100 was used to remove external free ANTS/DPX from LUVs with entrapped contents. LUVs were diluted to 0.5 mM and used to measure the leakage activity by the addition of aliquots of ACPs. Leakage was measured after 3 h incubation. 10% Triton was used as the positive control to measure the maximum leakage of the vesicle. Fluorescence emission spectra were recorded using excitation and emission wavelength of 350 and 510 nm for ANTS/DPX using a BioTek Synergy H1 Hybrid Multi‐Mode Reader.
Peptide Concentration-induced Peptide Concentration-induced
Name Sequence† 50 % ANTS/DPX leakage 50 % ANTS/DPX leakage at pH 7.4 (L/P) at pH 4.8 (L/P)
POPC Vesicle 3POPC/1POPG Vesicle POPC Vesicle 3POPC/1POPG Vesicle […]
Extended Data Table 4 | Peptide concentration-induced 50 % ANTS/DPX liposome leakage. 0.5 mM POPC and 3POPC/1POPG vesicles were fixed and incubated with titrated peptide concentration (0, 0.02, […]
hydrochloric acid-adjusted phoshate buffered saline (1X, pH 4.8). The values are shown as lipid per

Structure (SMILES)	IC50 [1] [µM]	IC50 [2] [µM]	IC50 [3] [µM]	IC50 [4] [µM]	Lipid Concentration-induced 50% Peptide Binding (L/P), 3POPC/1POPG Vesicle [6] [L/P]	Lipid Concentration-induced 50% Peptide Binding (L/P), POPC Vesicle [6] [L/P]	IC50 [5] [µM]	Peptide Concentration-induced 50 % ANTS/DPX leakage at pH 4.8 (L/P), 3POPC/1POPG Vesicle [7] [L/P]	Peptide Concentration-induced 50 % ANTS/DPX leakage at pH 4.8 (L/P), POPC Vesicle [7] [L/P]	Peptide Concentration-induced 50 % ANTS/DPX leakage at pH 7.4 (L/P), 3POPC/1POPG Vesicle [7] [L/P]	Peptide Concentration-induced 50 % ANTS/DPX leakage at pH 7.4 (L/P), POPC Vesicle [7] [L/P]	change of ANTS/DPX dye leakage / liposome selectivity at pH 4.8 ([7]; pH = 4.8 compared with physiological pH, anionic versus neutral liposomes)
CC(C)C[C@H](NC(=O)CN)C(=O)N[C@@H](CC(C)C)C(=O)N[C@@H](Cc1c[nH]cn1)C(=O)N[C@@H](CC(C)C)C(=O)N[C@@H](CC(C)C)C(=O)N[C@@H](CCC(=O)O)C(=O)N[C@@H](CC(C)C)C(=O)N[C@@H](CC(C)C)C(=O)N[C@@H](CC(C)C)C(=O)N[C@@H](Cc1c[nH]cn1)C(=O)N[C@@H](C)C(=O)N[C@@H](C)C(=O)NCC(=O)N[C@@H](Cc1c[nH]c2ccccc12)C(N)=O [HEH] (H-GLLHLLELLLHAAGW-NH2)	28.6 ± 10.8	11 ± 1.06	> 200	106 ± 14	3.50	0.88	8.8 ± 1.7	24	173	505	995	increased selectivity for neutral bilayers
CC(C)C[C@H](NC(=O)CN)C(=O)N[C@@H](CC(C)C)C(=O)N[C@@H](Cc1c[nH]cn1)C(=O)N[C@@H](CC(C)C)C(=O)N[C@@H](CC(C)C)C(=O)N[C@@H](Cc1c[nH]cn1)C(=O)N[C@@H](CC(C)C)C(=O)N[C@@H](CC(C)C)C(=O)N[C@@H](CC(C)C)C(=O)N[C@@H](CCC(=O)O)C(=O)N[C@@H](C)C(=O)N[C@@H](C)C(=O)NCC(=O)N[C@@H](Cc1c[nH]c2ccccc12)C(N)=O [HHE] (H-GLLHLLHLLLEAAGW-NH2)	16.7 ± 2.26	10.8 ± 0.78	> 200	53.2 ± 5.3	0.75	1.00	18.4 ± 3.75	113	143	411	842	–
CC(C)C[C@H](NC(=O)CN)C(=O)N[C@@H](CC(C)C)C(=O)N[C@@H](Cc1c[nH]cn1)C(=O)N[C@@H](CC(C)C)C(=O)N[C@@H](CC(C)C)C(=O)N[C@@H](Cc1c[nH]cn1)C(=O)N[C@@H](CC(C)C)C(=O)N[C@@H](CC(C)C)C(=O)N[C@@H](CC(C)C)C(=O)N[C@@H](Cc1c[nH]cn1)C(=O)N[C@@H](C)C(=O)N[C@@H](C)C(=O)NCC(=O)N[C@@H](Cc1c[nH]c2ccccc12)C(N)=O [HHH] (H-GLLHLLHLLLHAAGW-NH2)	21.1 ± 6.93	9.5 ± 0.99	79 ± 11.3	185 ± 7	0.82	0.46	30.6 ± 4.81	50	173	469	1133	–

Now those with a lower IC50 [1], led by results:

IC50 [1] [µM]	IC50 [2] [µM]	IC50 [3] [µM]	IC50 [4] [µM]	Lipid Concentration-induced 50% Peptide Binding (L/P), 3POPC/1POPG Vesicle [6] [L/P]	Lipid Concentration-induced 50% Peptide Binding (L/P), POPC Vesicle [6] [L/P]	Structure (SMILES)	IC50 [5] [µM]	Peptide Concentration-induced 50 % ANTS/DPX leakage at pH 4.8 (L/P), 3POPC/1POPG Vesicle [7] [L/P]	Peptide Concentration-induced 50 % ANTS/DPX leakage at pH 4.8 (L/P), POPC Vesicle [7] [L/P]	Peptide Concentration-induced 50 % ANTS/DPX leakage at pH 7.4 (L/P), 3POPC/1POPG Vesicle [7] [L/P]	Peptide Concentration-induced 50 % ANTS/DPX leakage at pH 7.4 (L/P), POPC Vesicle [7] [L/P]	change of ANTS/DPX dye leakage / liposome selectivity at pH 4.8 ([7]; pH = 4.8 compared with physiological pH, anionic versus neutral liposomes)
6.5 ± 0.71	4.95 ± 0.49	58 ± 41	47.5 ± 11	0.50	0.58	CC(C)C[C@H](NC(=O)CN)C(=O)N[C@@H](CC(C)C)C(=O)N[C@@H](Cc1c[nH]cn1)C(=O)N[C@@H](CC(C)C)C(=O)N[C@@H](CC(C)C)C(=O)N[C@@H](CCC(=O)O)C(=O)N[C@@H](CC(C)C)C(=O)N[C@@H](CC(C)C)C(=O)N[C@@H](CC(C)C)C(=O)N[C@@H](CCC(=O)O)C(=O)N[C@@H](C)C(=O)N[C@@H](C)C(=O)NCC(=O)N[C@@H](Cc1c[nH]c2ccccc12)C(N)=O [HEE] (H-GLLHLLELLLEAAGW-NH2)	10.2 ± 0.2	122	100	792	876	–
3.15 ± 0.07	1.75 ± 0.21	5.6 ± 0.14	12.7 ± 1.91	0.20	0.68	CC(C)C[C@H](NC(=O)CN)C(=O)N[C@@H](CC(C)C)C(=O)N[C@@H](Cc1c[nH]cn1)C(=O)N[C@@H](CC(C)C)C(=O)N[C@@H](CC(C)C)C(=O)N[C@@H](Cc1c[nH]cn1)C(=O)N[C@@H](CC(C)C)C(=O)N[C@@H](CC(C)C)C(=O)N[C@@H](CC(C)C)C(=O)N[C@@H](CCCCN)C(=O)N[C@@H](C)C(=O)N[C@@H](C)C(=O)NCC(=O)N[C@@H](Cc1c[nH]c2ccccc12)C(N)=O [HHK] (H-GLLHLLHLLLKAAGW-NH2)	5.25 ± 1.48	111	149	160	1133	–
2.7 ± 0.28	1.9 ± 0.42	7.6 ± 0.42	16 ± 0.78	0.25	0.75	CC(C)C[C@H](NC(=O)CN)C(=O)N[C@@H](CC(C)C)C(=O)N[C@@H](Cc1c[nH]cn1)C(=O)N[C@@H](CC(C)C)C(=O)N[C@@H](CC(C)C)C(=O)N[C@@H](CCCCN)C(=O)N[C@@H](CC(C)C)C(=O)N[C@@H](CC(C)C)C(=O)N[C@@H](CC(C)C)C(=O)N[C@@H](CCC(=O)O)C(=O)N[C@@H](C)C(=O)N[C@@H](C)C(=O)NCC(=O)N[C@@H](Cc1c[nH]c2ccccc12)C(N)=O [HKE] (H-GLLHLLKLLLEAAGW-NH2)	5.15 ± 0.64	94	173	365	692	–
2.35 ± 1.06	3.45 ± 2.19	29.8 ± 7.35	143 ± 80.3	0.46	0.44	CC(C)C[C@H](NC(=O)CN)C(=O)N[C@@H](CC(C)C)C(=O)N[C@@H](Cc1c[nH]cn1)C(=O)N[C@@H](CC(C)C)C(=O)N[C@@H](CC(C)C)C(=O)N[C@@H](CCC(=O)O)C(=O)N[C@@H](CC(C)C)C(=O)N[C@@H](CC(C)C)C(=O)N[C@@H](CC(C)C)C(=O)N[C@@H](CCCCN)C(=O)N[C@@H](C)C(=O)N[C@@H](C)C(=O)NCC(=O)N[C@@H](Cc1c[nH]c2ccccc12)C(N)=O [HEK] (H-GLLHLLELLLKAAGW-NH2)	6.95 ± 1.63	411	97	386	755	–
1.72 ± 0.21	1.19 ± 0.4	1.7 ± 0.11	12.2 ± 1.84	0.63	1.50	CC(C)C[C@H](NC(=O)CN)C(=O)N[C@@H](CC(C)C)C(=O)N[C@@H](CCC(=O)O)C(=O)N[C@@H](CC(C)C)C(=O)N[C@@H](CC(C)C)C(=O)N[C@@H](CCCCN)C(=O)N[C@@H](CC(C)C)C(=O)N[C@@H](CC(C)C)C(=O)N[C@@H](CC(C)C)C(=O)N[C@@H](CCCCN)C(=O)N[C@@H](C)C(=O)N[C@@H](C)C(=O)NCC(=O)N[C@@H](Cc1c[nH]c2ccccc12)C(N)=O [EKK] (H-GLLELLKLLLKAAGW-NH2)	3.35 ± 0.49	219	60	235	1095	–
